US6399568B1, “Cyclic tetrapeptide derivatives and medicinal use thereof” (Japan Energy Corporation, priority 1997, dated 2002)
Non-standard residues stand in square brackets, D forms with d. Residues, ends and D or L forms follow the SMILES beside them. ξ: configuration not given here. *: point of attachment. d1Nal = N[C@H](Cc1cccc2ccccc12)C(=O)O; Asu = N[C@@H](CCCCCC(=O)O)C(=O)O; dTic = O=C(O)[C@H]1Cc2ccccc2CN1; Ile(3ξ) = CCC(C)[C@H](N)C(=O)O; Pip = O=C(O)[C@@H]1CCCCN1; dPip = O=C(O)[C@H]1CCCCN1; BrAc = O=C(CBr)*; Sar = CNCC(=O)O; For = O=C*; NHOH = ON*

Experiments:
B16/BL6 cells = experiment: MHC class-I molecule expression promoting activity; assay type: cell-based, mouse; conditions: for conc. for 2-fold expression (nM) mean: mean of a plurality of assays; for MHC class-I molecule expression promoting activity: allowed to act on animal cells (summary statement)
Procedure: The cancer cells used were mouse melanoma cells, B16/BL6 cells, provided by, the National Cancer Institute, U.S.A. Said cells were cultivated in MEM media supplemented with 10% FBS at 37° C. in the presence of 5% carbon dioxide in an humidified incubator.
A compound to be tested was preliminarily dissolved in dimethyl sulfoxide (DMSO) and adjusted to a concentration of 100 mM or 10 mM (source solution).
Said B16/BL6 cells were inoculated on 96 well microplate at a cell density of 5000 cells per well, each well containing 200 μl of said medium. […] Thereafter, each well was once washed with PBS (phosphate buffered saline) and floating cells and the medium were removed. Then, the well was treated with 0.1% glutaraldehyde solution for 3 minutes to fix the cells.
The amount of MHC class-I molecule expressed on the surface of the fixed cells was measured by the following method. Anti-H-2K^bD^bD^d antibody, which is an antibody against mouse MHC classI molecule (commercially available from Meiji Milk Co., Ltd), was used as a primary antibody, biotinylated anti-mouse IgG+M (commercially available from Chemicon) was used as a secondary antibody, and streptavidin-β-galactosidase conjugate (commercially available from BRL) was reacted as a labelling enzyme. The amount of the thus labelled enzyme β-galactosidase was measured in a microplate reader by recording the fluorescent intensity (excitation: 365 nm, fluorescence: 450 nm) derived from the enzymaticreaction product using 4-methylumbelliferyl-β-D-galactoside (commercially available from Nacalai Tesque) as a substrate. […] The value obtained by subtracting said background level from the, actually measured value (an apparent value including the background level) was the true measurement reflecting the amount of expressed MHC class-I molecule.
A group without the addition of any compound to be tested was used as a reference group and the measurement of MHC class-I molecule expressed in said group was used as a standard value. The amount of MHC class-I molecule expressed at a concentration of addition of each test compound is shown as a relative amount, said standard value taken as one (1). For each compound to be tested, various concentrations of addition were selected to investigate the dependency of MHC class-I molecule expression promoting action on the concentration of addition.

histone deacetylase = experiment: Histone deacetylase enzyme inhibiting activity, synthetic peptide substrate; assay type: biochemical, mouse; conditions: enzyme from B16/BL6 cells; [3H]acetylated histone H4 peptide; 37° C. 3 hours
Procedure: The preparation of histone deacetylase was performed essentially according to the method of Yoshida et al. (J. Biol. Chem., 265,17174-17179, 1990). The enzyme to be used was partially purified from B16/BL6 cells. The cells were suspended in HDA buffer (15 mM potassium phosphate, 5% glycerol, 0.2 mM EDTA, […], pH 7.5), homogenized and centrifuged (2500×g, 10 min) to collect the nuclei, which in turn were homogenized in the same buffer containing 1 M (NH4)2SO4. After ultrasonic disruption and centrifugation, the concentration of (NH4)2SO4 in the collected supernatant was increased to 3.5 M to precipitate histone deacetylase. This precipitate was redissolved in HDA buffer, subjected to gel filtration to replace the solvent with HDA buffer, and used as a crude histone deacetylase enzyme solution.
As a substrate, a synthetic substrate peptide, [^3H]acetylated histone H4 peptide was used. This [^3H]acetylated histone H4 peptide was obtained by synthesizing the N-terminal peptide of histone H4; […] (the C-terminal being cysteine) and radio-acetylating with ^3H -acetic anhydride.
An assay was performed by incubating the synthetic substrate solution and the enzyme solution at 37° C. for 3 hours in the presence of a compound to be tested (reaction volume, 100 μl). The reaction was stopped by adding 25 μl of 1 M HCl and 0.2 M acetic acid and [^3H]acetate excised by the enzyme reaction was extracted with ethyl acetate for radioactivity measurement. As a control group, the same procedure was repeated without addition of any test compound to the reaction system. The inhibiting activity was expressed by a concentration at which the histone deacetylase enzyme activity in the control group was inhibited by 50% (50% inhibiting concentration).

## cyclo(-Asu(NHOH)-D-Phe-Phe-Sar-) [CHAP41]
B16/BL6 cells; 72 hours
  conc. for 2-fold expression (nM) mean: 24.5 nM

## O=C(CCCCCc1ccccc1)NO [Ph-(CH2)5-CONHOH, reference compound]
B16/BL6 cells; 72 hours
  conc. for 2-fold expression (nM) mean: 11400 nM

## CC(/C=C/C(=O)NO[C@@H]1O[C@H](CO)[C@@H](O)[C@H](O)[C@H]1O)=C\[C@@H](C)C(=O)c1ccc(N(C)C)cc1 [trichostatin C, reference compound]
B16/BL6 cells
  MHC class-I molecule expression promoting activity: promotes the expression of MHC class-I molecule
B16/BL6 cells; 72 hours
  conc. for 2-fold expression (nM) mean: 6.88 nM

## C[C@@H]1NC(=O)[C@@H](Cc2ccccc2)NC(=O)[C@H](CCCCCC(=O)NO)NC(=O)[C@H]2CCCN2C1=O [HDA-45, cyclo(-L-Asu(NHOH)-D-Phe-L-Ala-D-Pro-)] (cyclo(A[dP][Asu](NHOH)[dF]))
B16/BL6 cells; 72 hours
  conc. for 2-fold expression (nM) mean: 23.1 nM

## CN1CC(=O)N[C@@H](CCCCCC(=O)NO)C(=O)N[C@@H](Cc2ccccc2)C(=O)N[C@@H](Cc2ccccc2)C1=O [HDA-40, cyclo(-L-Asu(NHOH)-L-Phe-L-Phe-Sar-)] (cyclo([Asu](NHOH)FF[Sar]))
B16/BL6 cells; 72 hours
  conc. for 2-fold expression (nM) mean: 748 nM

## CCC(C)[C@@H]1NC(=O)[C@@H](Cc2ccc(OC)cc2)NC(=O)[C@H](CCCCC(=O)NO)NC(=O)[C@H]2CCCN2C1=O (stereo partly drawn) [HDA-42, cyclo(-L-Api(NHOH)-D-Tyr(Me)-L-Ile-D-Pro-)]
Histone deacetylase
  IC50: 0.0538 µM
B16/BL6 cells; 72 hours
  conc. for 2-fold expression (nM) mean: 512 nM

## O=C(CCCCC[C@@H]1NC(=O)[C@@H]2CCCN2C(=O)[C@H](Cc2ccccc2)NC(=O)[C@@H](Cc2ccccc2)NC1=O)NO [HDA-38, cyclo(-L-Asu(NHOH)-D-Phe-L-Phe-L-Pro-)] (cyclo([Asu](NHOH)[dF]FP))
Histone deacetylase
  IC50: 0.00532 µM
B16/BL6 cells; 72 hours
  conc. for 2-fold expression (nM) mean: 558 nM

## CCC(C)[C@@H]1NC(=O)[C@@H](Cc2ccccc2)NC(=O)[C@H](CCCCCC(=O)NO)NC(=O)[C@H]2CCCN2C1=O (stereo partly drawn) [HDA-46, cyclo(-L-Asu(NHOH)-D-Phe-L-Ile-D-Pro-)] (cyclo([Asu](NHOH)[dF][Ile(3ξ)][dP]))
B16/BL6 cells; 72 hours
  conc. for 2-fold expression (nM) mean: 1.96 nM

## CC(C)C[C@@H]1NC(=O)[C@H](Cc2cn(C=O)c3ccccc23)NC(=O)[C@H](CCCCCC(=O)NO)NC(=O)[C@H]2CCCCN2C1=O [HDA-16, cyclo(-L-Asu(NHOH)-L-Trp(CHO)-L-Leu-D-Pip-)] (cyclo([Asu](NHOH)W(For)L[dPip]))
B16/BL6 cells; 72 hours
  conc. for 2-fold expression (nM) mean: toxic

## cyclo(-L-Asu(NHOH)-D-Tyr(Me)-L-Ile-L-Pro-)2 [HDA-14, reference compound]
B16/BL6 cells; 72 hours
  conc. for 2-fold expression (nM) mean: >10000 nM

## NC(=O)c1cccnc1 [nicotinamide, reference compound]
B16/BL6 cells; 72 hours
  conc. for 2-fold expression (nM) mean: >1000000 nM

## O=C(CCCCC[C@@H]1NC(=O)[C@@H]2CCCN2C(=O)[C@@H](Cc2ccccc2)NC(=O)[C@H](Cc2ccccc2)NC1=O)NO [HDA-39, cyclo(-L-Asu(NHOH)-L-Phe-D-Phe-L-Pro-)] (cyclo([Asu](NHOH)F[dF]P))
Histone deacetylase
  IC50: 0.226 µM
B16/BL6 cells; 72 hours
  conc. for 2-fold expression (nM) mean: 65800 nM

## CC(C)C[C@@H]1NC(=O)[C@H](Cc2c[nH]c3ccccc23)NC(=O)[C@H](CCCCCC(=O)NO)NC(=O)[C@H]2CCCCN2C1=O [HDA-33, cyclo(-L-Asu(NHOH)-L-Trp-L-Leu-D-Pip-)] (cyclo([Asu](NHOH)WL[dPip]))
B16/BL6 cells; 72 hours
  conc. for 2-fold expression (nM) mean: weak

## CC(=O)NC(CCCCCC(=O)NO)C(=O)NCc1ccccc1 (centres unmarked) [Ac-Asu(NHOH)-NH-Bzl, reference compound]
B16/BL6 cells; 72 hours
  conc. for 2-fold expression (nM) mean: 2410 nM

## CCC(C)[C@@H]1NC(=O)[C@@H](Cc2ccc3ccc4cccc5ccc2c3c45)NC(=O)[C@H](CCCCCC(=O)NO)NC(=O)[C@H]2CCCN2C1=O (stereo partly drawn) [HDA-48, cyclo(-L-Asu(NHOH)-D-Pya-L-Ile-D-Pro-)]
B16/BL6 cells; 72 hours
  conc. for 2-fold expression (nM) mean: 0.846 nM

## CC(C)C[C@@H]1NC(=O)[C@@H](Cc2ccccc2)NC(=O)[C@H](CCCCCC(=O)NO)NC(=O)[C@@H]2CCCCN2C1=O [HDA-53, cyclo(-L-Asu(NHOH)-D-Phe-L-Leu-L-Pip-)] (cyclo([Asu](NHOH)[dF]L[Pip]))
B16/BL6 cells; 72 hours
  conc. for 2-fold expression (nM) mean: 19.8 nM

## O=C(O)c1cccnc1 [nicotinic acid, reference compound]
B16/BL6 cells; 72 hours
  conc. for 2-fold expression (nM) mean: >1000000 nM

## O=C(NO)c1cccnc1 [nicotinic acid hydroxamate, reference compound]
B16/BL6 cells; 72 hours
  conc. for 2-fold expression (nM) mean: 28000 nM

## O=C(CBr)NCCCC[C@@H]1NC(=O)[C@H]2CCCN2C(=O)[C@H](Cc2ccccc2)NC(=O)[C@H](Cc2ccccc2)NC1=O [HDA-26, cyclo(-L-Lys(BrAc)-L-Phe-L-Phe-D-Pro-)] (cyclo(FF[dP]K(BrAc)))
B16/BL6 cells; 72 hours
  conc. for 2-fold expression (nM) mean: 5660 nM

## CCCC(=O)O [butyric acid, reference compound]
B16/BL6 cells
  MHC class-I molecule expression promoting activity: exhibit the MHC class-I molecule expression promoting activity

## O=C(CCCCC[C@@H]1NC(=O)[C@@H](Cc2ccccc2)NC(=O)[C@H](Cc2ccccc2)NC(=O)[C@H]2CCCN2C1=O)NO [HDA-37, cyclo(-L-Asu(NHOH)-D-Pro-L-Phe-D-Phe-)] (cyclo([Asu](NHOH)[dP]F[dF]))
Histone deacetylase
  IC50: 0.00916 µM
B16/BL6 cells; 72 hours
  conc. for 2-fold expression (nM) mean: 320 nM

## O=C(O)c1ccccc1 [benzoic acid, reference compound]
B16/BL6 cells; 72 hours
  conc. for 2-fold expression (nM) mean: >200000 nM

## cyclo(-Asu(NHOH)-Phe-Phe-D-Pro-)2 [HDA-19, reference compound]
B16/BL6 cells; FIGS. 3 and 4, dependence on concentration of addition
  MHC class-I molecule expression promoting action: low MHC class-I molecule expression promoting action was observed only at a high concentration of addition
B16/BL6 cells; concentration at which MHC class-I expression is twice that without addition, 72 hours
  Twice Promoting Concentration Cx2: >40 µM
B16/BL6 cells; 72 hours
  conc. for 2-fold expression (nM) mean: weak

## COc1ccc(C[C@H]2NC(=O)[C@H](CCCCCC(=O)NO)NC(=O)[C@H]3CCCN3C(=O)[C@H](C)NC2=O)cc1 [HDA-44, cyclo(-L-Asu(NHOH)-D-Tyr(Me)-L-Ala-D-Pro-)] (cyclo(A[dP][Asu](NHOH)[dY](Me)))
B16/BL6 cells; 72 hours
  conc. for 2-fold expression (nM) mean: 35.00 nM

## CCC(C)[C@@H]1NC(=O)[C@@H](Cc2ccc(OC)cc2)NC(=O)[C@H](CCCCCCC(=O)NO)NC(=O)[C@H]2CCCN2C1=O (stereo partly drawn) [HDA-43, cyclo(-L-Aaz(NHOH)-D-Tyr(Me)-L-Ile-D-Pro-)]
Histone deacetylase
  IC50: 0.0339 µM
B16/BL6 cells; 72 hours
  conc. for 2-fold expression (nM) mean: 155 nM

## CCC(C)[C@@H]1NC(=O)[C@@H](Cc2cccc3ccccc23)NC(=O)[C@H](CCCCCC(=O)NO)NC(=O)[C@H]2CCCN2C1=O (stereo partly drawn) [HDA-47, cyclo(-L-Asu(NHOH)-D-Naf-L-Ile-D-Pro-)] (cyclo([Asu](NHOH)[d1Nal][Ile(3ξ)][dP]))
B16/BL6 cells; 72 hours
  conc. for 2-fold expression (nM) mean: 9.59 nM

## cyclo (-L-Lys(Ac)L-Phe-L-Phe-D-Pro-)2 [HDA-7, reference compound]
B16/BL6 cells; 72 hours
  conc. for 2-fold expression (nM) mean: 75000 nM

## CC[C@H](C)[C@@H]1NC(=O)[C@@H](Cc2ccc(OC)cc2)NC(=O)[C@H](CCCCCC(=O)NO)NC(=O)[C@H]2Cc3ccccc3CN2C1=O [HDA-52, cyclo(-L-Asu(NHOH)-D-Tyr(Me)-L-Ile-D-Tic-)] (cyclo([Asu](NHOH)[dY](Me)I[dTic]))
Histone deacetylase
  IC50: 0.00435 µM
B16/BL6 cells; 72 hours
  conc. for 2-fold expression (nM) mean: 0.191 nM

## O=C(NO)c1ccccc1 [benzohydroxamic acid, reference compound]
B16/BL6 cells; 72 hours
  conc. for 2-fold expression (nM) mean: 35800 nM
